From patent US7109354B2, “Thiophene amidines, compositions thereof, and methods of treating complement-mediated diseases and conditions” (3-Dimensional Pharmaceuticals, Inc., priority 2002, dated 2006)
Where a name gives a salt, the structure may show the parent alone.

These molecules were tested against T1, Activated human C1s (Homo sapiens, UniProt P09871) (assay: In vitro inhibition of C1s (Ki determination, C1s-catalyzed hydrolysis of Z-Gly-Arg-S-Bzl, DTNB readout)). Conditions: substrate Z-Gly-Arg-S-Bzl 45 μM, DTNB 200 μM, C1s 2.3 nM, pH 7.5, 37° C., absorbance at 405 nm.
T1 construct: purchased Calbiochem (La Jolla, Calif.)
T1 sequence (P09871 438-688 limits assumed): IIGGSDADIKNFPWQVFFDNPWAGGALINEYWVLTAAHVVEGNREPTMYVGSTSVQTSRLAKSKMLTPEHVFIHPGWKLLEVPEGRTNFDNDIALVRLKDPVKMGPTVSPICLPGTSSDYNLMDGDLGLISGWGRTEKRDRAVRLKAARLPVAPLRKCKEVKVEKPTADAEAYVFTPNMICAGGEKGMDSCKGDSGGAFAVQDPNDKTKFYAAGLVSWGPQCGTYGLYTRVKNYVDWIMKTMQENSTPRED
T1 sequence (P09871 16-437 partner limits assumed): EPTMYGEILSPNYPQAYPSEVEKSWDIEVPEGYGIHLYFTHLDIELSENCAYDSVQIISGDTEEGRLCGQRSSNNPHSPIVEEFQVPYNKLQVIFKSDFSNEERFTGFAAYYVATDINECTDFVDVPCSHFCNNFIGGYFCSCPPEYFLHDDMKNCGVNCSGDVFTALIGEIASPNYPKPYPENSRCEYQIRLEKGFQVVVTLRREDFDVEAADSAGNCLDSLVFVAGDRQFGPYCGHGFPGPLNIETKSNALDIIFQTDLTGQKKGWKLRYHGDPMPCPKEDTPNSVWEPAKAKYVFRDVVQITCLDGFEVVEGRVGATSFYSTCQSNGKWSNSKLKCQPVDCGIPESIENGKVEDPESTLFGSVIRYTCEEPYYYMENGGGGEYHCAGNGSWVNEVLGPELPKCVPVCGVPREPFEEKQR
Assay type: biochemical

Ki, 6 to 23 nM:
CSc1sc(C(=N)N)cc1S(=O)(=O)c1cc(-c2ccccc2C)c2ncn(C)c2c1 [Example 108, 5-methylsulfanyl-4-(3-methyl-7-o-tolyl-3H-benzoimidazole-5-sulfonyl)-thiophene-2-carboxamidine trifluoroacetate]
CSc1sc(C(=N)N)cc1S(=O)(=O)c1cc(-c2ccccc2C)c2nc[nH]c2c1 [Example 110, 5-methylsulfanyl-4-(7-o-tolyl-3H-benzoimidazole-5-sulfonyl)-thiophene-2-carboxamidine trifluoroacetate]
COc1cccc(S(=O)(=O)c2cc(C(=N)N)sc2SC)c1 [Example 114, 4-(3-Methoxy-benzenesulfonyl)-5-methylsulfanyl-thiophene-2-carboxamidine hydrochloride HCl]
CSc1sc(C(=N)N)cc1S(=O)(=O)c1ccc(C)c(-c2ccccc2)c1 [Example 115, 4-(6-Methyl-biphenyl-3-sulfonyl)-5-methylsulfanyl-thiophene-2-carboxamidine trifluoroacetate]
CSc1sc(C(=N)N)cc1S(=O)(=O)c1cccc(Oc2ccccc2)c1 [Example 116, 5-Metylsulfanyl-4-(3-phenoxy-benzenesulfonyl)-thiophene-2-carboxamidine hydrochloride salt]
CSc1sc(C(=N)N)cc1S(=O)(=O)c1cccc(-c2ccccc2)c1 [Example 117, 4-(Biphenyl-3-sulfonyl)-5-methylsulfanyl-thiophene-2-carboxamidine trifluoroacetate]
CSc1sc(C(=N)N)cc1S(=O)(=O)c1cnc(Cl)c(Br)c1 [Example 118, 4-(5-Bromo-6-chloro-pyridine-3-sulfonyl)-5-methylsulfanyl-thiophene-2-carboxamidine]
CSc1sc(C(=N)N)cc1S(=O)(=O)c1cnc(N)c(Br)c1 [Example 119, 4-(6-Amino-5-bromo-pyridine-3-sulfonyl)-5-methylsulfanyl-thiophene-2-carboxamidine]
CSc1sc(C(=N)N)cc1S(=O)(=O)c1cnc(N)c(-c2ccccc2C)c1 [Example 121, 4-(6-Amino-5-o-tolyl-pyridine-3-sulfonyl)-5-methylsulfanyl-thiophene-2-carboxamidine]
CSc1sc(C(=N)N)cc1S(=O)(=O)c1cccc(-c2c(C)cc(Cl)cc2NC(=O)CCCS(C)(=O)=O)c1 [Example 135, N-[3′-(5-Carbamimidoyl-2-methylsulfanyl-thiophene-3-sulfonyl)-4-chloro-6-methyl-biphenyl-2-yl]-4-methanesulfonyl-butyramide trifluoroacetate]
CCCCCCNC(=N)Nc1ccc(-c2cccc(S(=O)(=O)c3cc(C(=N)N)sc3SC)c2)c(C)c1 [Example 136, 4-[4′-(N′-Hexyl-guanidino)-2′-methyl-biphenyl-3-sulfonyl]-5-methylsulfanyl-thiophene-2-carboxamidine trifluoroacetate]
CSc1sc(C(=N)N)cc1S(=O)(=O)c1cccc(-c2ccc(NC(=N)NCCCS(C)(=O)=O)cc2C)c1 [Example 171, 4-{4′-[N′-(3-Methanesulfonyl-propyl)-guanidino]-2′-methyl-biphenyl-3-sulfonyl}-5-methylsulfanyl-thiophene-2-carboxamidine trifluoroacetate]
CSc1sc(C(=N)N)cc1S(=O)(=O)c1cccc(-c2ccc(NC(=N)NCCCCCS(C)(=O)=O)cc2C)c1 [Example 173, 4-{4′-[N′-(5-Methanesulfonyl-pentyl)-guanidino]-2′-methyl-biphenyl-3-sulfonyl}-5-methylsulfanyl-thiophene-2-carboxamidine trifluoroacetate]
CSc1sc(C(=N)N)cc1S(=O)(=O)c1cccc(-c2c(C)cc(NC(=N)N)cc2NC(=O)NCCCCS(C)(=O)=O)c1 [Example 184, 4-{4′-Guanidino-2′-[3-(4-methanesulfonyl-butyl)-ureido]-6′-methyl-biphenyl-3-sulfonyl}-5-methylsulfanyl-thiophene-2-carboxamidine trifluoroacetate]
COc1cc(C)c(-c2cccc(S(=O)(=O)c3cc(C(=N)N)sc3SC)c2)c(COCC(=O)O)c1 [Example 192, [3′-(5-Carbamimidoyl-2-methylsulfanyl-thiophene-3-sulfonyl)-4-methoxy-6-methyl-biphenyl-2-ylmethoxy]-acetic acid trifluoroacetate]
CSc1sc(C(=N)N)cc1S(=O)(=O)c1cccc(-c2c(C)cccc2NC(=O)NCCNS(=O)(=O)c2ccccc2)c1 [Example 194, 4-{2′-[3-(2-Benzenesulfonylamino-ethyl)-ureido]-6′-methyl-biphenyl-3-sulfonyl}-5-methylsulfanyl-thiophene-2-carboxamidine trifluoroacetate]
CSc1sc(C(=N)N)cc1S(=O)(=O)c1cccc(-c2c(C)cccc2NC(=O)NCCNS(C)(=O)=O)c1 [Example 195, 4-{2′-[3-(2-Methanesulfonylamino-ethyl)-ureido]-6′-methyl-biphenyl-3-sulfonyl}-5-methylsulfanyl-thiophene-2-carboxamidine trifluoroacetate]
CSc1sc(C(=N)N)cc1S(=O)(=O)c1cccc(-c2c(C)cccc2NC(=O)NCCCc2ccccc2)c1 [Example 203, 4-{6′-Methyl-2′-[3-(3-phenyl-propyl)-ureido]-biphenyl-3-sulfonyl}-5-methylsulfanyl-thiophene-2-carboxamidine trifluoroacetate]
CSc1sc(C(=N)N)cc1S(=O)(=O)c1cccc(-c2c(C)cccc2NC(=O)NCCc2c[nH]c3ccccc23)c1 [Example 207, 4-(2′-{3-[2-(1H-Indol-3-yl)-ethyl]-ureido}-6′-methyl-biphenyl-3-sulfonyl)-5-methylsulfanyl-thiophene-2-carboxamidine trifluoroacetate]
CSc1sc(C(=N)N)cc1S(=O)(=O)c1cccc(-c2c(C)cccc2NC(=O)CCCS(C)(=O)=O)c1 [Example 209, N-[3′-(5-Carbamimidoyl-2-methylsulfanyl-thiophene-3-sulfonyl)-6-methyl-biphenyl-2-yl]-4-methanesulfonyl-butyramide trifluoroacetate]
CSc1sc(C(=N)N)cc1S(=O)(=O)c1cccc(-c2c(C)cccc2NC(=O)CCCS(N)(=O)=O)c1 [Example 210, N-[3′-(5-Carbamimidoyl-2-methylsulfanyl-thiophene-3-sulfonyl)-6-methyl-biphenyl-2-yl]-4-sulfamoyl-butyramide trifluoroacetate]
CSc1sc(C(=N)N)cc1S(=O)(=O)c1cccc(-c2c(C)cccc2NC(=O)CCCCCCCCCCN)c1 [Example 211, 11-Amino-undecanoic acid [3′-(5-carbamimidoyl-2-methylsulfanyl-thiophene-3-sulfonyl)-6-methyl-biphenyl-2-yl]-amide bistrifluoroacetate]
CSc1sc(C(=N)N)cc1S(=O)(=O)c1cccc(-c2ccc(F)cc2C)c1 [Example 219, 4-(4′-Fluoro-2′-methyl-biphenyl-3-sulfonyl)-5-methylsulfanyl-thiophene-2-carboxamidine trifluoroacetate]
